Among the data in paper PMC3794980, “Identification of Conserved and HLA Promiscuous DENV3 T-Cell Epitopes” (PLoS Neglected Tropical Diseases, 2013) are IC50 values, retold here.

Among the targets are DRB3*0101 (Homo sapiens, UniProt P01903+P79483); DRB4*0101 (Homo sapiens, UniProt P01903+P13762, G164S); DRB5*0101 (Homo sapiens, UniProt P01903+Q30154).
Common to all, as to experiment: biochemical
Holding throughout (format): binding

pIC50: −log10 of the molar value.

As to `CC[C@H](C)[C@H](NC(=O)[C@H](CO)NC(=O)[C@H](C)N)C(=O)N[C@@H](C)C(=O)N[C@@H](C)C(=O)N[C@@H](CCCNC(=N)N)C(=O)NCC(=O)N[C@@H](Cc1ccc(O)cc1)C(=O)N[C@H](C(=O)N[C@@H](CO)C(=O)N[C@H](C(=O)N[C@@H](CCCNC(=N)N)C(=O)N[C@H](C(=O)NCC(=O)N[C@@H](CCSC)C(=O)O)C(C)C)[C@@H](C)O)[C@@H](C)CC` [NS3 293-307], the pIC50 at DRB3*0101 is 4.72; on DRB4*0101 it was 5.57.
Regarding `CC[C@H](C)[C@H](NC(=O)[C@H](Cc1ccc(O)cc1)NC(=O)CNC(=O)[C@H](CC(C)C)NC(=O)[C@H](CCCCN)NC(=O)[C@H](Cc1c[nH]cn1)NC(=O)[C@@H](N)CC(C)C)C(=O)N[C@@H](CC(C)C)C(=O)N[C@@H](CCCNC(=N)N)C(=O)N[C@@H](CC(=O)O)C(=O)N[C@H](C(=O)N[C@@H](CO)C(=O)N[C@@H](CCCCN)C(=O)N[C@H](C(=O)N1CCC[C@H]1C(=O)NCC(=O)NCC(=O)O)[C@@H](C)CC)[C@@H](C)CC` [NS5 511-527], the pIC50 against DRB4*0101 was 7.24; against DRB5*0101, 6.21.
As to `CC[C@H](C)[C@H](NC(=O)[C@H](C)NC(=O)[C@@H](NC(=O)[C@H](C)NC(=O)[C@H](CC(C)C)NC(=O)[C@H](CCCNC(=N)N)NC(=O)[C@H](CCCCN)NC(=O)[C@@H]1CCCN1C(=O)[C@H](CO)NC(=O)[C@H](CC(=O)O)NC(=O)[C@H](C)NC(=O)[C@H](CCC(N)=O)NC(=O)[C@H](Cc1ccccc1)NC(=O)[C@@H](N)CCCCN)[C@@H](C)O)C(=O)N[C@@H](C)C(=O)O` [NS1 33-47], the pIC50 was 7.66 at DRB3*0101 and 6.04 at DRB4*0101.
For `CC[C@H](C)[C@H](NC(=O)[C@H](Cc1c[nH]c2ccccc12)NC(=O)[C@H](CCC(=O)O)NC(=O)[C@H](CC(N)=O)NC(=O)CNC(=O)[C@H](CO)NC(=O)[C@H](CC(N)=O)NC(=O)[C@@H](N)Cc1c[nH]c2ccccc12)C(=O)N[C@H](C(=O)N[C@@H](CC(=O)O)C(=O)N[C@@H](Cc1ccccc1)C(=O)N[C@@H](C)C(=O)NCC(=O)N[C@@H](CCCCN)C(=O)N[C@H](C(=O)O)[C@@H](C)O)[C@@H](C)O` [NS3 345-359], in that order: 7.49 and 5.98.
As for `CC[C@H](C)[C@H](NC(=O)[C@@H](NC(=O)[C@H](CC(C)C)NC(=O)[C@H](CC(N)=O)NC(=O)[C@H](CCCNC(=N)N)NC(=O)[C@H](CCCCN)NC(=O)[C@H](CCCCN)NC(=O)[C@H](Cc1ccccc1)NC(=O)[C@H](CCSC)NC(=O)[C@H](CCC(=O)O)NC(=O)[C@@H](N)CCC(=O)O)[C@@H](C)O)C(=O)N[C@@H](CCSC)C(=O)N[C@@H](CC(=O)O)C(=O)N[C@@H](CC(C)C)C(=O)N[C@@H](Cc1c[nH]cn1)C(=O)O` [NS3 181-195], the negative logarithm of the IC50 (pIC50) against DRB3*0101 is 5.90; at DRB4*0101, 7.17.
Take `CSCC[C@H](NC(=O)[C@H](C)NC(=O)[C@H](CCSC)NC(=O)[C@H](CCC(N)=O)NC(=O)[C@@H](NC(=O)[C@@H](NC(=O)[C@@H](N)CCSC)C(C)C)[C@@H](C)O)C(=O)N[C@H](C(=O)N[C@@H](CC(=O)O)C(=O)N[C@H](C(=O)N[C@H](C(=O)N1CCC[C@H]1C(=O)N[C@@H](Cc1ccccc1)C(=O)NCC(=O)N[C@@H](CCC(N)=O)C(=O)N[C@@H](CCC(N)=O)C(=O)N[C@@H](CCCNC(=N)N)C(=O)O)[C@@H](C)O)[C@@H](C)O)[C@@H](C)O` [NS5 336-352]: the figures for the negative logarithm of the IC50 (pIC50) against DRB4*0101 and against DRB5*0101 were 6.13 and 4.98, respectively.
Take `CC[C@H](C)[C@H](NC(=O)[C@H](CC(C)C)NC(=O)[C@H](CC(=O)O)NC(=O)[C@H](CCCCN)NC(=O)[C@@H](N)CCCCN)C(=O)N[C@@H](CO)C(=O)N[C@@H](Cc1ccc(O)cc1)C(=O)NCC(=O)NCC(=O)NCC(=O)N[C@@H](Cc1c[nH]c2ccccc12)C(=O)N[C@@H](CCCNC(=N)N)C(=O)N[C@@H](CC(C)C)C(=O)N[C@@H](CO)C(=O)N[C@@H](C)C(=O)O` [NS3 73-87]: the negative-log IC50 (pIC50) at DRB4*0101 is 5.46; on DRB5*0101, 7.15.
As to `CC[C@H](C)[C@H](NC(=O)[C@@H](NC(=O)[C@H](CC(C)C)NC(=O)[C@H](CC(N)=O)NC(=O)[C@H](CCCNC(=N)N)NC(=O)[C@H](CCCCN)NC(=O)[C@@H](N)CCCCN)[C@@H](C)O)C(=O)N[C@@H](CCSC)C(=O)N[C@@H](CC(=O)O)C(=O)N[C@@H](CC(C)C)C(=O)N[C@@H](Cc1c[nH]cn1)C(=O)N1CCC[C@H]1C(=O)NCC(=O)N[C@@H](CO)C(=O)NCC(=O)O` [NS3 185-199], the pIC50 against DRB3*0101 was 5.84; at DRB4*0101 it was 8.12.
For `CC[C@H](C)[C@H](NC(=O)[C@@H](NC(=O)[C@H](CCSC)NC(=O)[C@H](CC(=O)O)NC(=O)[C@H](CO)NC(=O)[C@H](CCC(=O)O)NC(=O)[C@H](CC(C)C)NC(=O)[C@@H](NC(=O)CNC(=O)[C@H](CC(N)=O)NC(=O)[C@H](CO)NC(=O)[C@H](Cc1c[nH]c2ccccc12)NC(=O)[C@H](CC(C)C)NC(=O)[C@@H](NC(=O)[C@@H](N)Cc1c[nH]cn1)[C@@H](C)O)C(C)C)[C@@H](C)CC)C(=O)O` [NS1 229-243], in that order: 6.13 and 5.09.
As for `CC[C@H](C)[C@H](NC(=O)[C@@H](N)CCSC)C(=O)N[C@H](C(=O)N1CCC[C@H]1C(=O)N[C@@H](CCCCN)C(=O)N[C@@H](CO)C(=O)N[C@@H](CC(C)C)C(=O)N[C@@H](C)C(=O)NCC(=O)N1CCC[C@H]1C(=O)N[C@H](C(=O)N[C@@H](CO)C(=O)N[C@@H](CCC(N)=O)C(=O)N[C@@H](Cc1c[nH]cn1)C(=O)N[C@@H](CC(N)=O)C(=O)O)[C@@H](C)CC)[C@@H](C)CC` [NS1 241-255], the negative-log IC50 (pIC50) against DRB4*0101 is 5.96; at DRB5*0101, 5.49.
For the compound `CC[C@H](C)[C@H](NC(=O)[C@H](CCSC)NC(=O)[C@H](CO)NC(=O)[C@H](CO)NC(=O)[C@H](C)NC(=O)[C@H](CO)NC(=O)CNC(=O)[C@@H](NC(=O)[C@H](C)NC(=O)[C@H](CCCCN)NC(=O)[C@@H](NC(=O)[C@H](CCC(=O)O)NC(=O)[C@H](Cc1ccc(O)cc1)NC(=O)[C@H](CO)NC(=O)CN)C(C)C)[C@@H](C)O)C(=O)N[C@@H](CC(N)=O)C(=O)NCC(=O)O` [NS5 306-322], the negative logarithm of the IC50 (pIC50) is 5.64 at DRB3*0101 and 5.26 against DRB4*0101.
In the same order, the values of `CC[C@H](C)[C@H](NC(=O)[C@H](C)NC(=O)[C@H](CCC(=O)O)NC(=O)[C@H](CCCNC(=N)N)NC(=O)[C@@H](N)C(C)C)C(=O)N[C@@H](CCCCN)C(=O)N[C@@H](CCCNC(=N)N)C(=O)N[C@@H](CCCNC(=N)N)C(=O)N[C@@H](CC(C)C)C(=O)N[C@@H](CCCNC(=N)N)C(=O)N[C@H](C(=O)N[C@@H](CC(C)C)C(=O)N[C@H](C(=O)N[C@@H](CC(C)C)C(=O)N[C@@H](C)C(=O)O)[C@@H](C)CC)[C@@H](C)O` [NS3 209-223] are 5.58 and 8.29.
With `CSCC[C@H](NC(=O)[C@H](Cc1ccc(O)cc1)NC(=O)[C@H](CCCNC(=N)N)NC(=O)[C@H](CC(C)C)NC(=O)[C@@H]1CCCN1C(=O)[C@@H]1CCCN1C(=O)[C@H](CC(C)C)NC(=O)[C@@H](NC(=O)[C@H](CS)NC(=O)[C@H](CO)NC(=O)[C@H](CCCNC(=N)N)NC(=O)[C@@H](N)CS)[C@@H](C)O)C(=O)NCC(=O)N[C@@H](CCC(=O)O)C(=O)N[C@@H](CC(=O)O)C(=O)O` [NS1 313-327], the results for the negative logarithm of the IC50 (pIC50) on DRB4*0101 and against DRB5*0101 were 6.30 and 5.64, respectively.
In the case of `CC[C@H](C)[C@H](NC(=O)[C@H](CC(C)C)NC(=O)[C@H](CO)NC(=O)[C@H](C)NC(=O)[C@H](CCCCN)NC(=O)[C@H](CCC(=O)O)NC(=O)[C@H](CC(C)C)NC(=O)[C@H](CCCCN)NC(=O)[C@H](Cc1c[nH]c2ccccc12)NC(=O)[C@@H](N)CO)C(=O)N[C@@H](CCC(=O)O)C(=O)N[C@H](C(=O)N[C@@H](CCCCN)C(=O)N[C@H](C(=O)N[C@@H](CS)C(=O)O)[C@@H](C)O)C(C)C` [NS1 209-223], the pIC50 on DRB4*0101 was 5.30; against DRB5*0101 it was 5.93.
Turning to `CC[C@H](C)[C@H](NC(=O)[C@H](CC(=O)O)NC(=O)[C@H](CCSC)NC(=O)[C@@H](NC(=O)[C@@H](NC(=O)CNC(=O)[C@H](CCCCN)NC(=O)[C@@H]1CCCN1C(=O)[C@@H](NC(=O)[C@@H]1CCCN1)[C@@H](C)O)[C@@H](C)O)C(C)C)C(=O)N[C@H](C(=O)N[C@@H](CO)C(=O)N[C@@H](CCCNC(=N)N)C(=O)N[C@@H](CCCCN)C(=O)N[C@@H](CC(=O)O)C(=O)N[C@@H](CCC(N)=O)C(=O)N[C@@H](CCCNC(=N)N)C(=O)O)[C@@H](C)CC` [NS5 582-598], the figures for the pIC50 against DRB3*0101 and against DRB4*0101 were 5.14 and 5.81, respectively.
In the same order, the values of `CC[C@H](C)[C@H](NC(=O)[C@H](CCC(=O)O)NC(=O)CNC(=O)[C@H](CCCNC(=N)N)NC(=O)[C@H](CCCCN)NC(=O)[C@H](CC(C)C)NC(=O)CNC(=O)[C@H](CCC(=O)O)NC(=O)[C@H](CCCCN)NC(=O)[C@H](C)NC(=O)[C@H](CCC(=O)O)NC(=O)[C@@H](N)[C@@H](C)O)C(=O)N[C@H](C(=O)N[C@@H](Cc1c[nH]cn1)C(=O)N[C@@H](Cc1c[nH]cn1)C(=O)N[C@@H](C)C(=O)N[C@H](C(=O)O)C(C)C)[C@@H](C)O` [NS5 39-55] are 6.13 and 6.25.
For `CC[C@H](C)[C@H](NC(=O)[C@H](Cc1c[nH]c2ccccc12)NC(=O)[C@H](CCC(=O)O)NC(=O)[C@@H](N)CC(N)=O)C(=O)N[C@H](C(=O)N[C@@H](CC(=O)O)C(=O)N[C@@H](Cc1ccccc1)C(=O)N[C@@H](C)C(=O)NCC(=O)N[C@@H](CCCCN)C(=O)N[C@H](C(=O)N[C@H](C(=O)N[C@@H](Cc1c[nH]c2ccccc12)C(=O)N[C@@H](Cc1ccccc1)C(=O)N[C@H](C(=O)O)C(C)C)C(C)C)[C@@H](C)O)[C@@H](C)O` [NS3 349-363], in that order: 6.66 and 5.27.
In the same order, the values of `CC(C)C[C@H](NC(=O)[C@H](CCC(=O)O)NC(=O)[C@H](CC(C)C)NC(=O)[C@H](CCCCN)NC(=O)CNC(=O)[C@H](CC(C)C)NC(=O)[C@H](Cc1c[nH]cn1)NC(=O)[C@H](Cc1c[nH]c2ccccc12)NC(=O)[C@@H]1CCCN1C(=O)CNC(=O)[C@H](C)NC(=O)[C@@H](NC(=O)[C@H](CCC(N)=O)NC(=O)[C@@H](NC(=O)[C@@H](N)Cc1c[nH]cn1)[C@@H](C)O)[C@@H](C)O)C(=O)O` [NS1 261-275] are 5.88 and 6.18.
